# US20130259929A1, “USE OF A PHOSPHOPEPTIDE ABLE TO BLOCK HER3/P85 INTERACTION FOR THE TREATMENT OF HER2 HYPER-EXPRESSING TUMOURS” (priority 2010, published 2013)
# Non-standard residues stand in square brackets, D forms with d. No end group written: not given here. pY = N[C@@H](Cc1ccc(OP(=O)(O)O)cc1)C(=O)O
# Key:
# [1] = biological target: T1, HER3 binding to GST-N-SH2p85 fusion protein (Homo sapiens, UniProt P27986); experiment: GST pull-down; conditions: lysates of BT474, MCF7 and MDA-MB-453 cells, in vitro (FIG. 2A, FIG. 3)
# T1 construct: containing SH2 domains in N-terminal portion of p85 sub-unit
# Method: GST pull-down. MCF-7, BT474 and MDA-MB-453 cell lines have been washed 2 times with cold PBS and extracted with lysis buffer [(50 mM Tris HCl (pH 7.4), 250 mM NaCl, 0,1% Triton X-100, 5 mM EDTA, 50 mM NaF, 1 mM PMSF, 5 mM Na3VO4 and 50 mmol/L of protease inhibitors (Roche, Milano, IT)]. After 20 minute ice-cold incubation, the lysates have been clarified by centrifugation at 14000 rpm for 20 minutes. The cellular extracts (1 mg sample) have been incubated for 4 hours at 4° C. in the presence of GST bound gluthatione-agarose beads or GST-p85 fusion protein (kindly supplied by doctor S. Giordano), in the presence or absence of 1257 phosphopeptide or scr peptide used as control. Then the interaction complexes have been washed six times with lysis buffer and subsequently beads eluted using Laemli Buffer 2× [(140 mM SDS, 432 mM Glycerol, 1.6 mM Bromophenol blue, 120 mM Tris HCl (pH 6.8), 8% β-mercaptoethanol)]. The proteins have been separated using 8% SDS-PAGE and transferred on nitrocellulose filter. The filter has been then immunodecorated with anti ErbB3 antibody.
# As in FIG. 2A is apparent that 1257 phosphopeptide effectively in vitro binds p85 sub-unit thus inhibiting HER3 receptor binding.
# [2] = system: BT474 cells; experiment: Cell death and apoptosis (Trypan Blue exclusion); assay type: cell-based, human; conditions: BT474 cells vs parental or scr transfected; Herceptin 1 μg/ml 40 hours where combined
# Description: (§1) Cell death and Apoptosis. MCF7, BT474 and MDA-MB-453 cell lines have been plated at 5×10^5 concentration in 60 mm plates. On subsequent day the cells have been transfected with ErbB3 specific interference oligonucleotides or peptides. […] The cells have been washed two times with cold PBS and then trypsin collected. The evaluation of cellular viability has been carried out by means of Trypan Blue exclusion. The use of anti-PARP antibody in Western Blotting analysis allowed apoptosis to be evaluated. Briefly the cells have been lysed in RIPA buffer [150 mM NaCl, 1% NP-40, 0,5% sodium deoxycholate (DOC), 0.1% SDS, 50 mM TrisHCl (pH 8), 1 mM PMSF, 1 mM EGTA, 50 mM NaF, 50 mM Na3VO4 and protease inhibitors (Roche, Milano, IT)]. The samples have been boiled for 5 minutes at 95° C., resolved using SDS-PAGE, transferred on nitrocellulose and blotted using anti-PARP antibody. The tumour cell death analyzed by immunohistochemistry have been obtained using TUNEL assay.
# [3] = system: MCF7 cells; experiment: Cell death and apoptosis (Trypan Blue exclusion); assay type: cell-based, human; conditions: MCF7 cells vs parental or scr transfected; Herceptin 1 μg/ml 40 hours where combined
# Description: as §1
# [4] = system: BT474 cells; experiment: Soft agar anchorage-independent growth; assay type: cell-based, human; conditions: compared to parental or scr peptide transfected cells
# Method: (§2) Soft agar. […] Briefly cells (1×10^4) have been re-suspended in 5 ml of 0.3% agar in RPMI or DMEM supplemented with 10% FCS, and quickly stained on a solid layer of 1.2% agar in DMEM/RPMI. Cultures have been carried out for 4 weeks. Then colonies have been stained with viable colony specific neutral red solution (Sigma, Milan, IT), and then counted. Photographies have been taken using Leica DM IRE2 microscope and Leica FW4000 software (Leica Microsystems, Milan, IT).
# (§3) Then it has been attempted to understand whether the peptide is suitable to reduce the cell ability to grow under anchorage-independence conditions.
# [5] = system: MCF7 cells; experiment: Soft agar anchorage-independent growth; assay type: cell-based, human; conditions: compared to parental or scr peptide transfected cells
# Method: as §2, §3
# [6] = system: MCF7/Luc cells; experiment: In vivo growth of peptide-transfected MCF7/Luc cells inoculated s.c.; parameters: species or system SCID mice
# Method: Xeno-grafts. In vivo tests have been carried out using 40 day old SCID female mice (Harlan Laboratories, Milan, IT). At day 0, animals have been totally anesthetized with intramuscular injection of 400 μg/animal (average weight 25 g) of Zoletil (Virbac) containing 0.12% Xylor (Xylazine), and transplanted subcutaneously (s.c.), in intrascapular mouse region with pellet of […] (1.7 mg/sustained release pellet over 60 days, Innovative Research of America, Sarasota, Fla.). On the next day, 5×10^6 proliferating and scr and 1257 peptide previously transfected, as above described, MCF7 or BT474 cells, have been re-suspended in 0.1 ml of Matrigel (BD Biosciences) and subcutaneously inoculated in each mouse. […] Tumour growth has been monitored two times weekly using calibration along two orthogonal axes: length (L) and […]. The tumour volume (V) has been calculated using the formula V=L*(W2)/2. All the procedures relating to animals and treatment thereof have been carried out according institutional guidelines.
# Generation of mammary tumour luminescent cells. Mammary tumour MCF7 cell lines stably transfected using pGL4.51 (luc2/CMV/Neo) expression vector, produced by Promega (Me, IT), have been transfected using scr or 1257 phosphopeptide ([…]×5×10^4 cells/mouse) and after 30 h subcutaneously inoculated in SCID mice (5×10^6 cells/mouse) in 200 μl (1:1 Matrigel: cell suspension in serum free medium). Mice have been in vivo imaged 20′ after inoculation and once weekly over 11 weeks. The animals have been anesthetized, as above reported, and subjected to intraperitoneal injection with 200 μl of luciferin (Caliper, Mi, IT); 10′ after incubation photon emission has been analyzed at 3′ minute exposure using Xenogen Ivis Lumina 2 machine. Growth of these cells has been monitored as reported in xenografts section.
# Then it has been verified whether 1257 phosphopeptide was effective also in vivo. To this purpose immunocompromised SCID mice have been used. In the presence of oestrogen tablets, 5×10^6 control cells transfected with scr peptide or transfected with 1257 peptide have been injected subcutaneously between mouse scapulae. In order to verify the viability of phosphopeptide transfected cells in animals we have generated a stable luciferase gene expressing MCF7 cell line (MCF7/Luc).
# [7] = system: BT474 xenograft; experiment: Electroporation tumour therapy of BT474 xenografts; assay type: in vivo, SCID mice; conditions: Herceptin i.p. (FIG. 11A)
# Method: Xeno-grafts. In vivo tests have been carried out using 40 day old SCID female mice (Harlan Laboratories, Milan, IT). At day 0, animals have been totally anesthetized with intramuscular injection of 400 μg/animal (average weight 25 g) of Zoletil (Virbac) containing 0.12% Xylor (Xylazine), and transplanted subcutaneously (s.c.), in intrascapular mouse region with pellet of 17-h-extradiol (1.7 mg/sustained release pellet over 60 days, Innovative Research of America, Sarasota, Fla.). […] Tumour growth has been monitored two times weekly using calibration along two orthogonal axes: length (L) and depth (VV). The tumour volume (V) has been calculated using the formula V=L*(W2)/2.
# Electroporation tumour therapy. […] Therapy has been repeated once weekly, and tumour size monitored up to 70 days.
# [8] = s.c. inoculation of transfected MCF7 cells, up to 16th week
# T1 sequence (P27986 333-428 limits assumed): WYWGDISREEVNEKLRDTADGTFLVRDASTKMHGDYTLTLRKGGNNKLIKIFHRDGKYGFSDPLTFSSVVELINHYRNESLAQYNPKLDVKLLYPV
substance,measurement,setting,value
RDGGGPGGDpYAAMGACPA (RDGGGPGGD[pY]AAMGACPA; listed as Homo sapiens) [1257 phosphopeptide],inhibition of HER3 and p85 SH2 domain binding,[1],inhibits in specific way HER3 and p85 SH2 domain binding
same,"cell death, times higher than controls",[2],4 times
same,"cell death, times higher than controls",[3],3 times
same,reduction of colony number,[4],up to 80%
same,reduction of colony number,[5],up to 80%
same,luminescence of transplanted cells over the time,[6]; bioluminescence imaging weekly (FIG. 7A),progressively decreases
same,time after inoculation at which tumours were calibratable,[6]; s.c. inoculation of transfected MCF7 cells,about 10 week
same,animals that displayed tumour,[6]; [8],One out of five
same,reduction of tumour take,[6]; [8],80%
same,tumour mass compared to not treated control,[7],strongly reduces the tumour mass
